Laboratory results as given in ChEMBL document CHEMBL1128316, “Alkane-6,8-diol: inhibitor of tumor promotion in two-stage carcinogenesis in mouse skin” (1995).

Columns and labels:
[1] = Inhibitory ratio at 1.0 mg/ear; format: functional
Mus musculus = assay: Inhibition of TPA-induced inflammatory ear edema in mice(compound was applied 30 min before TPA […],Ear thickness was determined 6 hr after TPA treatment); format: functional

## CCCCCCCCCCCCCCCCCCCC(O)CC(O)CCCCC (stereo unspecified)
[1]
  Ratio: <82
Mus musculus
  ID50: 0.5 mg ear-1

## CCCCCCCC(O)CC(O)CCCCC (stereo unspecified)
[1]
  Ratio: 23

## CCCCCCCCCCCCCCCCCCCCCC(O)CC(O)CCCCC (stereo unspecified)
[1]
  Ratio: <85
Mus musculus
  ID50: 0.4 mg ear-1

## C[C@]12CCC(=O)C=C1CCC1[C@@H]2[C@@H](O)C[C@@]2(C)[C@H]1CC[C@]2(O)C(=O)CO (single isomer, unassigned) [HYDROCORTISONE]
[1]
  Ratio: <99
Mus musculus
  ID50: 0.03 mg ear-1

## COc1ccc2c(c1)c(CC(=O)O)c(C)n2C(=O)c1ccc(Cl)cc1 [INDOMETHACIN]
[1]
  Ratio: <96
Mus musculus
  ID50: 0.3 mg ear-1

## O=c1c(O)c(-c2ccc(O)c(O)c2)oc2cc(O)cc(O)c12 [QUERCETIN]
[1]
  Ratio: <40
Mus musculus
  ID50: 1.6 mg ear-1
